From patent US10703698B2, “Compounds which activate estrogen receptors and compositions and methods of using the same” (The Board of Trustees of the University of Illinois, priority 2016, dated 2020) come the findings set out here.

Test [1] deals with LRRC54 gene. The test can be described thus: LRRC54 (non-genomic gene) mRNA expression, qPCR. The note with it: for LRRC54 (non-genomic gene) mRNA expression, in words: MCF-7 cells, 1 μM PaPE or 10 nM E2 for 4 h where stated, versus vehicle, E2 or compound 2. In general terms: Quantitative PCR measures a nucleic acid by following its amplification.
Excerpt: (§2) Quantitation of signal intensities is shown in panel at the right.
In test [2] the target is T1, purified full-length human ERα (Homo sapiens, UniProt P03372).
T1 construct: using purified full-length human ERα and ERβ
T1 sequence (P03372 1-595): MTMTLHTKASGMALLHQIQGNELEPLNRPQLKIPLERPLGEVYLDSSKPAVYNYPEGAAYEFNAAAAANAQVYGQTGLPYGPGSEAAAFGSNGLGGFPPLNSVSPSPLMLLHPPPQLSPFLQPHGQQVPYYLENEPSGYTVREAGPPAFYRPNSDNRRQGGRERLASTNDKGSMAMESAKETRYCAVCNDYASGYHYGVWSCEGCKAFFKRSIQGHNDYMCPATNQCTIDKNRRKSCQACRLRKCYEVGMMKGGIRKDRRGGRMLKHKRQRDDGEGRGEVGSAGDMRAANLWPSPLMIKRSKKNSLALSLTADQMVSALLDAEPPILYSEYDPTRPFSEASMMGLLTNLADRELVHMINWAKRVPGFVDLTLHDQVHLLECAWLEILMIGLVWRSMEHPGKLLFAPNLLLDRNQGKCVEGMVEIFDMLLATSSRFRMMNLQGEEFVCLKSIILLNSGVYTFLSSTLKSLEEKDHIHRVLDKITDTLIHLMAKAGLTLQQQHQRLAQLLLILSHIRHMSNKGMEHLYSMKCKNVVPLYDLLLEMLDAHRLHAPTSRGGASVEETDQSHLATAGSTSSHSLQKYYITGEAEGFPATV
The test can be described thus: competitive radiometric binding assay, relative binding affinity (RBA). Conditions: relative to estradiol = 100. From the text: (§1) FIG. 1. […] […]

The target of test [3] is T2, purified full-length human ERβ (Homo sapiens, UniProt Q92731).
T2 construct: using purified full-length human ERα and ERβ
T2 sequence (Q92731 whole entry): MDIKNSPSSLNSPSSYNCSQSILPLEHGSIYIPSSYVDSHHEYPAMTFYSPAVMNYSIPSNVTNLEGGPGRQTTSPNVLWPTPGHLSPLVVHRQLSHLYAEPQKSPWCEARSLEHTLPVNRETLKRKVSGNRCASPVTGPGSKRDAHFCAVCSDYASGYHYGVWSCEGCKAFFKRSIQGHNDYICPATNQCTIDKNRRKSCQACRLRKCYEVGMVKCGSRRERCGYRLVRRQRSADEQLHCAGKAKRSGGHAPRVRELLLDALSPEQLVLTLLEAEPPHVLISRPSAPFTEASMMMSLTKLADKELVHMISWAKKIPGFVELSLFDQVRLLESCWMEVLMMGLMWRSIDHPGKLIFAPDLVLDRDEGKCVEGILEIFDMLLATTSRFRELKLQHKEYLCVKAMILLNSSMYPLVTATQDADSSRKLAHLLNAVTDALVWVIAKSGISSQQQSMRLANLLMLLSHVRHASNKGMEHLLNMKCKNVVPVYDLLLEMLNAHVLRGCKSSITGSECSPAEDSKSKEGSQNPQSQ
The test is described as above. The note with it: relative to estradiol = 100.
Excerpt: as §1

The subject of test [4] is PgR gene. The test can be described thus: PgR (genomic gene) mRNA expression, qPCR. Conditions: MCF-7 cells; 1 μM PaPE or 10 nM E2 for 4 h where stated; versus vehicle or E2.
Excerpt: as §2

Molecules are shown by their SMILES.

Regarding `Cc1cc(-c2ccc3c(c2)CC[C@@H]3O)cc(C)c1O` [Compound 3, S-5-(4-hydroxy-3,5-dimethylphenyl)-2,3-dihydro-1H-inden-1-ol], in test [1], the “LRRC54 (non-genomic gene) mRNA expression, in words” value is recorded as “equivalent activities”.

As for `Cc1cc(-c2ccc3c(c2)CC[C@H]3O)cc(C)c1O` [Compound 4, R-5-(4-hydroxy-3,5-dimethylphenyl)-2,3-dihydro-1H-inden-1-ol], the “LRRC54 (non-genomic gene) mRNA expression, in words” value in test [1] was “less non-genomic gene activity”.

In the case of `COc1c(C)cc(-c2ccc3c(c2)CCC3O)cc1C` (centres unmarked) [Compound 5, 5-(4-methoxy-3,5-dimethylphenyl)-2,3-dihydro-1H-inden-1-ol], in test [1], the “LRRC54 (non-genomic gene) mRNA expression, in words” value was “marked loss of this non-genomic activity”.

Consider `Cc1cc(-c2ccc3c(c2)CCC3=O)cc(C)c1O` [Compound 6, 5-(4-hydroxy-3,5-dimethylphenyl)-2,3-dihydro-1H-inden-1-one], for which the “LRRC54 (non-genomic gene) mRNA expression, in words” value in test [1] is listed as “non-genomic activity is lost”.

With `Cc1cc(-c2ccc3c(c2)CCC3Cl)cc(C)c1O` (centres unmarked) [Compound 8, 4-(1-chloro-2,3-dihydro-1H-inden-5-yl)-2,6-dimethylphenol], the “ERα RBA (relative binding affinity)” value in test [2] was found to be 0.001 ± 0. The “ERβ RBA (relative binding affinity)” value in test [3] worked out at 0.006 ± 0.001. Further, in test [1] (FIG. 14), the “LRRC54 stimulation compared to E2” value was found to be 50%. Moreover, the “LRRC54 (non-genomic gene) mRNA expression, in words” value in test [1] was “stimulation of the nongenomic gene (LRRC54), but to a lesser degree than compound 2”.

Take `Cc1cc(-c2ccc3c(c2)CCC3)cc(C)c1O` [Compound 13, 4-(2,3-dihydro-1H-inden-5-yl)-2 6-dimethylphenol]: the “PgR (genomic gene) mRNA expression, in words” value (shortened to “PgR”) in test [4] was “strongly stimulate the genomic gene PgR”. Further, the “LRRC54 (non-genomic gene) mRNA expression, in words” value in test [1] was “some non-genomic activity”.

As to `Cc1cc(-c2ccc3c(c2)CC=C3)cc(C)c1O` [Compound 14, 4-(1H-inden-6-yl)-2,6-dimethylphenol], the “PgR” value in test [4] was “strongly stimulate the genomic gene PgR”.

In the case of `Cc1cc(-c2ccc3c(c2)C=CC3=O)cc(C)c1O` [Compound 18], the “PgR” value in test [4] was “increases expression of both the non-genomic and genomic genes”. Also, in test [1], the “LRRC54 (non-genomic gene) mRNA expression, in words” value was “increases expression of both the non-genomic and genomic genes”.

With `C#CC1(O)CCc2cc(-c3cc(C)c(O)c(C)c3)ccc21` (centres unmarked) [Compound 19, 1-ethynyl-5-(4-hydroxy-3,5-dimethylphenyl)-2,3-dihydro-1H-inden-1-ol], in test [2], the “ERα RBA (relative binding affinity)” value was 0.004 ± 0.001. Further, the “ERβ RBA (relative binding affinity)” value in test [3] is recorded as <0.001.

Regarding `COC1CCc2cc(-c3cc(C)c(O)c(C)c3)ccc21` (centres unmarked) [Compound 22, 4-(1-methoxy-2,3-dihydro-1H-inden-5-yl)-2,6-dimethylphenol], the “PgR” value in test [4] is “stimulation of both genomic and nongenomic gene expression is lost”. In test [1], the “LRRC54 (non-genomic gene) mRNA expression, in words” value is “stimulation of both genomic and nongenomic gene expression is lost”.

As to `Cc1cc(-c2ccc(CO)cc2)cc(C)c1O` [Compound 23], in test [2], the “ERα RBA (relative binding affinity)” value was determined as 0.002 ± 0.001. Moreover, in test [3], the “ERβ RBA (relative binding affinity)” value came out at 0.002 ± 0.001.

Regarding `Cc1cc(-c2ccc(CO)c(F)c2)cc(C)c1O` [Compound 25, 3′-fluoro-4′-(hydroxvmethyl)-3,5-dimethyl-[1,1′-biphenyl]-4-ol], the “ERα RBA (relative binding affinity)” value in test [2] turned out to be 0.003 ± 0. Moreover, in test [3], the “ERβ RBA (relative binding affinity)” value stood at 0.009 ± 0.

Take `Cc1cc(-c2ccc(CO)cc2C(F)(F)F)cc(C)c1O` [Compound 28]: the “ERα RBA (relative binding affinity)” value in test [2] amounted to 0.008 ± 0.002. Besides, the “ERβ RBA (relative binding affinity)” value in test [3] amounted to 0.013 ± 0.002.

For the compound `COC1CC(=O)c2ccc(-c3cc(C)c(O)c(C)c3)cc21` (centres unmarked) [Compound 29], in test [4], the “PgR” value was “did not activate PgR above that of vehicle (veh.)”.

Consider `CC(O)c1ccc(-c2ccccc2)cc1` (centres unmarked) [Compound 31], for which the “PgR” value in test [4] is “both activities are lost”. In test [1], the “LRRC54 (non-genomic gene) mRNA expression, in words” value was “both activities are lost”.

As for `Cc1cc([C@H]2CC[C@@]3(C)[C@H](CC[C@@H]3O)C2)cc(C)c1O` [Compound 43, (1S,3aR,5S,7aS)-5-(4-hydroxy-3,5-dimethylphenyl)-7a-methyloctahydro-1H-inden-1-ol], the “ERα RBA (relative binding affinity)” value in test [2] is given as <0.001. The “ERβ RBA (relative binding affinity)” value in test [3] came to 0.001.

With `Cc1cc(-c2ccc(CCBr)cc2)cc(C)c1O` [Compound 46], in test [1], the “LRRC54 (non-genomic gene) mRNA expression, in words” value is on record as “preferentially stimulate LRRC54 better than E2”.

As to `Cc1cc(-c2cccc(CCCO)c2)cc(C)c1O` [Compound 47, 3′-(3-hydroxypropyl)-3,5-dimethyl-[1,1′-biphenyl]-4-ol], in test [4], the “PgR” value is reported as “stimulate expression of genomic PgR genes well”. The “LRRC54 (non-genomic gene) mRNA expression, in words” value in test [1] was “good stimulation of the non-genomic LRRC54”.

On to `Cc1cc(-c2ccc(CCCO)cc2)cc(C)c1O` [Compound 48, 4′-(3-hydroxypropyl)-3,5-dimethyl-[1,1′-biphenyl]-4-ol], for which, in test [4], the “PgR” value is “stimulate expression of genomic PgR genes well”.

`Cc1cc(-c2cccc(CC(=O)O)c2)cc(C)c1O` [Compound 49]: the “PgR” value in test [4] was “behaves like vehicle”. Also, in test [1], the “LRRC54 (non-genomic gene) mRNA expression, in words” value is reported as “behaves like vehicle”.

On to `Cc1cc(-c2ccc3c(c2)CC(F)C3O)cc(C)c1O` (centres unmarked) [Compound 50, 2-fluoro-5-(4-hydroxy-3,5-dimethylphenyl)-2,3-dihydro-1H-inden-1-ol], for which the “PgR” value in test [4] is “stimulate both non-genomic LRRC54 and genomic PgR gene expression close to the level that of E2”. Further, the “LRRC54 (non-genomic gene) mRNA expression, in words” value in test [1] is “stimulate both non-genomic LRRC54 and genomic PgR gene expression close to the level that of E2”.

Take `Cc1cc(-c2ccc3c(c2)CC(Br)C3O)cc(C)c1O` (centres unmarked) [Compound 51, 2-bromo-5-(4-hydroxy-3,5-dimethylphenyl)-2,3-dihydro-1H-inden-1-ol]: the “PgR” value in test [4] was “stimulate both non-genomic LRRC54 and genomic PgR gene expression close to the level that of E2”. Moreover, in test [1], the “LRRC54 (non-genomic gene) mRNA expression, in words” value was “stimulate both non-genomic LRRC54 and genomic PgR gene expression close to the level that of E2”.

In the case of `Cc1cc(-c2ccc3c(c2)CC(Br)(Br)C3O)cc(C)c1O` (centres unmarked) [Compound 52, 2,2-dibromo-5-(4-hydroxy-3,5-dimethylphenyl)-2,3-dihydro-1H-inden-1-ol], in test [4], the “PgR” value is given as “little expression of both genes”. Further, in test [1], the “LRRC54 (non-genomic gene) mRNA expression, in words” value is “little expression of both genes”.

For the compound `Cc1cc(-c2ccc3cc(O)ccc3c2)cc(C)c1O` [Compound 53], the “PgR” value in test [4] is reported as “gene expression pattern equivalent to that of estradiol (E2)”. Further, the “LRRC54 (non-genomic gene) mRNA expression, in words” value in test [1] is recorded as “gene expression pattern equivalent to that of estradiol (E2)”.

Take `COCc1cc(-c2ccc3c(c2)CCC3O)cc(C)c1O` (centres unmarked) [Compound 54, 5-(4-hydroxy-3-methyl-5-methoxymethylphenyl)-2,3-dihydro-1H-inden-1-ol]: the “PgR” value in test [4] is “little expression of both genes”. The “LRRC54 (non-genomic gene) mRNA expression, in words” value in test [1] is “little expression of both genes”.

In the case of `OCc1cc(-c2ccc3c(c2)CCC3O)cc(CO)c1O` (centres unmarked) [Compound 58, 5-(4-hydroxy-3,5-(dihydroxymethyl)phenyl)-2,3-dihydro-1H-inden-1-ol], in test [1], the “LRRC54 (non-genomic gene) mRNA expression, in words” value is given as “increases the expression of the non-genomic LRRC54 gene”.

For the compound `OCc1cc(-c2ccccc2)ccc1O` [Compound 61, 4-Hydroxy-3-hydroxymethyl-biphenyl], in test [4], the “PgR” value was “not at all”. Besides, the “LRRC54 (non-genomic gene) mRNA expression, in words” value in test [1] was “a little better than vehicle (Veh.)”.

In the case of `Cc1cc(-c2cc(C)c(O)c(C)c2)cc(C)c1O` [Compound 65, 4,4′-Dihydroxy-3,3′,5,5′-tetramethylbiphenyl], in test [4], the “PgR” value is given as “equivalent to that of vehicle (Veh.)”. Besides, the “LRRC54 (non-genomic gene) mRNA expression, in words” value in test [1] was “greatly suppresses LRRC54 gene expression”.

In the case of `Cc1cc(C(=C2C3CC4CC(C3)CC2C4)c2ccc(Br)cc2)cc(C)c1O` [Compound 66], in test [4], the “PgR” value is on record as “stimulate PgR gene selectively”.

Turning to `Cc1cc(C(=C2CCCCC2)c2ccc(Br)cc2)cc(C)c1O` [Compound 67], the “PgR” value in test [4] was “stimulate PgR gene selectively”.

In the case of `Cc1cc(-c2cc(C)c(O)c(CO)c2)cc(C)c1O` [Compound 68, 3-(Hydroxymethyl)-3′,5,5′-trimethyl-[1,1′-biphenyl]-4,4′-diol], the “LRRC54 (non-genomic gene) mRNA expression, in words” value in test [1] was “suppresses LRRC54 gene expression compared to that of the parent compound 59”.

Regarding `Cc1cc(-c2ccc(O)c(CCO)c2)cc(C)c1O` [Compound 69, 3′-(2-hydroxyethyl)-3,5-dimethyl-[1,1′-biphenyl]-4,4′-diol], the “LRRC54 (non-genomic gene) mRNA expression, in words” value in test [1] was “does not improve the non-genomic LRRC54 gene response”.
